What was measured:
[1] = system: α-tubulin; assay: Western blot of α-tubulin and acetylated α-tubulin in 3xTg-AD mouse brain; format: in vivo; settings: 3xTg-AD mice 12 months old, 5 mg/kg/day, 2 months
Excerpt: The overexposed band near the bottom of the figure represents α-tubulin. Above this band a ladder of immuno-reactive bands was detected by the antibody.

[2] = system: long-term potentiation (LTP); settings: cited from earlier work
[3] = system: beta-tubulin; assay: Western blot of beta-tubulin in cynomolgus monkey hippocampus; format: in vivo; settings: cynomolgus monkeys of Example 19, hippocampal brain samples
Excerpt: (§1) The effects on tubulin were confirmed in the group of cynomolgus monkeys described in example 19.

[4] = system: tau; assay: Tau immunohistochemistry with H7 antibody in 3xTg-AD mice; format: in vivo, mouse
Excerpt: The 3xTg-AD mouse model incorporates both pathological hallmarks of Alzheimer's disease: Aβ amyloid plaques and neurofibrillary tangles. Neurofibrillary tangles consist of accumulates of abnormally phosphorylated tau protein. In the 3xTg-AD mice pathological somato-dendritic accumulation of tau can be seen in immunohistochemistry as part of the disease model phenotype.
ST101 effects on tau distribution and accumulation were explored in immunohistochemistry with H7 anti-tau antibody.

[5] = system: acetylated alpha-tubulin; assay: Western blot of acetylated alpha-tubulin in cynomolgus monkey hippocampus; format: in vivo; settings: cynomolgus monkeys of Example 19, hippocampal brain samples
Excerpt: as §1

[6] = system: Presenilin 1; assay: Western blot of Presenilin 1 in 3xTg-AD mouse brain; format: in vivo; settings: 3xTg-AD mice ~12 months old, 5 mg/kg/day, 2 months
Method: (§2) Western blots were probed with antibodies against BACE1 and ADAM10. FIG. 11A is a series of Western blots depicting levels of proADAM10, ADAM10, proBACE, BACE, Presenilinl and APP-CFTs in brain extracts from ST101 treated 3×TG-AD mice (S) versus control mice (C). C: control brain extract. S: ST101-treated brain extract. Animals were approximately 12 months old at sacrifice after 2 months of treatment with ST101 at 5 mg/kg/day.

[7] = system: huntingtin; assay: Western blot of pS13 huntingtin in 3xTg-AD mouse brain; format: in vivo; settings: 3xTg-AD mice 12 months old, 5 mg/kg/day, 2 months; in the majority of cases
Method: In a first pilot experiment to explore the effect of ST101 on proteins that accumulate in neurodegenerative diseases other than AD, brain extracts from ST101-treated 3xTg-AD mice (S) and control mice (C) mice were analyzed by Western blotting with an antibody directed against huntingtin, specifically against a phospho-epitope around serine 13 (pS13 huntingtin). These extracts are from the same mice as those used in Examples 15 and 16.

[8] = system: 3xTg-AD mice; assay: Morris Water Maze in 3xTg-AD mice; format: in vivo, mouse; settings: 2 months; for Morris Water Maze crosses over former platform location, retention testing / Morris Water Maze latency, retention testing: 3xTg-AD mice, 5 mg/kg/day
Method: 3xTg-AD mice of approximately one year of age were treated for 2 months with ST101. An average dose of 5 mg/kg/day was administered in drinking water (calculated dose, based on mean water consumption). Behavioral effects were tested by assessing performance on the Morris Water Maze. Biochemical effects were examined by measuring brain content of Aβ and APP by ELISA and Western Blot.
Behavioral Effects: Performance of 3xTg-AD Mice in the Morris Water Maze (MWM), adapted from Roozendaal et al., Proc. Natl. Acad. Sci. U.S.A. 100: 1328-1333 (2003).
The MWM tests both spatial memory (i.e. hippocampus dependent) and cued learning (i.e. non-hippocampal) in rodents. The maze is a circular tank filled with opaque water. Mice are placed in the water and must swim to find and escape onto a platform submerged 1.5 cm beneath the surface of the water. The time (in seconds) required to find the platform is recorded. Animals rely on visual cues in the room containing the tank in order to find the platform on successive challenges. Training was conducted daily for seven consecutive days.
Retention of training was assessed twice, 24 and 72 hours after the final training trial. Animals were subjected to a 60-second free swim in the tank with the platform removed. Parameters measured included (1) latency: time required to reach the former platform location and (2) crosses: the number of times the animal swam across the former platform location.

[9] = system: tau; assay: Western blot of tau species in 3xTg-AD mouse brain; format: in vivo; settings: 3xTg-AD mice ~12 months old, 5 mg/kg/day, 2 months, overexposed blot
Excerpt: The status of tau phosphorylation, accumulation and degradation can be assessed in Western blots. Two anti-tau antibodies, directed against non-phosphorylated and phosphorylated tau, were used to probe brain extracts from the initial experiment. FIG. 12 is a series of Western blots depicting levels of full-length tau, tau accumulates, tau degradation products and phosphorylated tau levels in brain extracts from ST101 treated 3×TG-AD mice (S) versus control mice (C). Beta actin levels (Ac) were used as a loading control. P-tau, two panels per antibody: top—normal exposure; bottom—overexposure to visualize minor protein bands. Ac: beta actin antibody as protein loading control. Animals were approximately 12 months old at sacrifice after 2 months of treatment with ST101 at 5 mg/kg/day.

[10] = system: LC3, Beclin 1, LAMP2A, cathepsin D; assay: Western blots of autophagy and lysosomal degradation mediators in 3xTg-AD mouse brain; format: in vivo; settings: 3xTg-AD mice 12 months old, 5 mg/kg/day, 2 months
Method: The concentrations of several proteins involved in these pathways, specifically LC3, Beclin 1 (macroautophagy), LAMP2A (chaperone mediated autophagy), and cathepsin D (lysosomal protease) were measured in Western blots from 3xTg-AD mouse brains (FIG. 18, extracts from the same animals used in Examples 15-17.

[11] = system: Neuro2a cells; assay: Aβ production by Neuro2a cells, ELISA of culture medium; format: cell-based, murine; settings: 24 hours treatment, vs control
Method: Neuro2a is a murine neuroblastoma cell line that is known to produce amyloid peptides Aβ1-40 and Aβ1-42 in amounts measurable by ELISA assays. These forms of Aβ have been correlated with the pathology in AD brain and Aβ1-42 in particular is postulated to have the ability to block a7 nicotinic receptors and to produce direct neurotoxic effects. Neuro2a cells were treated for 24 hours with ST101 added to the tissue culture medium. Tissue culture medium was collected and analyzed by ELISA for the presence of Aβ.

[12] = system: BACE1; assay: Western blot of BACE in 3xTg-AD mouse brain; format: in vivo; settings: 3xTg-AD mice ~12 months old, 5 mg/kg/day, 2 months
Method: APP C-terminal fragments C99 and C83 are created by beta-secretase and alpha-secretase cleavage respectively. The reduction of both C99 and C83 induced by ST101 could therefore be due to reduction or inhibition of secretases. This hypothesis was tested using Western blots of brain extracts from 3xTg-AD mice from the initial experiment in 12-month-old animals treated with ST101 for 2 months. The only beta-secretase is BACE1 and the constitutive alpha-secretase is ADAM10.
as §2

Compound: O=C1N=C2C=CC=CN2C12Cc1ccccc1C2 [ST101, spiro(imidazo[1,2-a]pyridin-2(3H)-one-3,2′-indan)]
- tubulin degradation products ([1]; acetylated α-tubulin antibody): reduced
- high molecular weight ladder of α-tubulin immuno-reactive bands (presumably ubiquitylated tubulin) ([1]; α-tubulin antibody): either absent or significantly reduced
- long-term potentiation (LTP) [2]: efficacy in increasing long-term potentiation (LTP)
- beta-tubulin degradation products [3]: increase
- neuronal loss, Hematoxylin/Eosin stained control sections [4]: no neuronal loss
- pathological somato-dendritic tau staining ([4]; hippocampus, H7 anti-tau antibody): clear reduction
- acetylated alpha-tubulin fragments [5]: reduction
- Presenilin 1 level [6]: did not show significant changes
- huntingtin protein levels (pS13 huntingtin) [7]: significantly reduced
- Morris Water Maze latency during training ([8]; 3xTg-AD mice ~1 year old, 5 mg/kg/day in drinking water, successive days of 7-day training, vs controls): greater reductions in latency
- Morris Water Maze crosses over former platform location, retention testing ([8]; 24 hours after final training): increases in crosses
- Morris Water Maze latency, retention testing ([8]; 24 hours after final training): reductions in latency
- Morris Water Maze crosses over former platform location, retention testing ([8]; 72 hours after final training): increases in crosses
- Morris Water Maze latency, retention testing ([8]; 72 hours after final training): reductions in latency
- accumulated tau and degradation products ([9]; H7 antibody): disappearance
- phosphorylated tau degradation product ([9]; R-p-tau antibody): appearance of a new phosphorylated tau degradation product
- Beclin 1 concentration [10]: did not reveal any obvious differences
- LAMP2A concentration [10]: did not reveal any obvious differences
- LC3 concentration [10]: did not reveal any obvious differences
- cathepsin D concentration [10]: did not reveal any obvious differences
- Aβ1-40 concentration in cell culture medium [11]: without major effects
- Aβ1-42 concentration in cell culture medium [11]: significantly reduced
- BACE protein level [12]: profound reduction
- Pro-BACE protein level [12]: not significantly affected

Reference: US20100298348A1, “Method of Decreasing Ubiquitylated Protein Levels” (priority 2009, published 2010)
